Assay: Whole-body PET/CT distribution of activity
Assay type: in vivo, piglets
Procedure: Early accumulation in the bone structures might be related to defluorination. At later time points, activity also accumulated in the gall bladder and the urinary bladder.
Three piglets (age: ~6 weeks, weight: ~13–15 kg) were fasted on the day of imaging and received an intranuscular. injection of 1 mL azaperone and 4 mL ketamine to introduce anesthesia. […] During narcosis, the animals maintained spontaneous respiration and no mandatory ventilation was applied. The subjects were sequentially imaged after an iv injection (contralateral ear vein) of 156 ± 54 MBq [^18F]FACH (0.63 ± 0.49 µg) in a PET/CT system (Biograph16, SIEMENS, Erlangen, Germany). The piglets were positioned prone with legs alongside the body on a custom-made plastic trough including a piglet head-holder (Figure 5). The PET acquisition was divided into a sequential (4 × 9 min, 3 × 12 min) and a static part (1 × 24 min, 1 × 30 min, 1 × 36 min), each of which was preceded by a low-dose CT to acquire structural data for attenuation correction (AC) and anatomical orientation (Figure 6). Post mortem, the urine was collected by bladder punctuation, weighted, and divided into three 1 mL samples for activity measurements in a gamma-counter (Packard Cobra II 5003 Auto Gamma Counting System, GMI, Ramsey, MN, USA).
The image data were analyzed with ROVER (ABX, Radeberg, Germany; v. 3.0.46h). […]

## CCCN(CCC[18F])c1ccc(/C=C(\C#N)C(=O)O)c(OC)c1 [[^18F]FACH, (E)-2-cyano-3-{4-[(3-[^18F]fluoropropyl)(propyl)amino]-2-methoxyphenyl}acrylic acid]
One representative animal, PET at different times p.i.
  distribution of activity (organs with high uptake): high uptake in the liver, pancreas, small intestines, and spleen
Rapid uptake in liver, later gall bladder
  route of excretion indicated by PET: hepatobiliary excretion

From PMC7248880, “Preclinical Incorporation Dosimetry of [^18F]FACH—A Novel ^18F-Labeled MCT1/MCT4 Lactate Transporter Inhibitor for Imaging Cancer Metabolism with PET” (Molecules, 2020)
